Where “and” joins values, the source holds several entries; their conditions need not be identical. Equal values may be shown once.
Legend:
[1] = adults; cited from earlier work
[2] = NMTRC003 phase II prevention trial: adverse events; type: in vivo
Description: Dosing diaries were required to be completed for each cycle. […] The primary endpoint was Event Free Survival (EFS); secondary objectives included Overall Survival (OS) and safety. EFS was defined as the period from the first day of administration of study drug to the first occurrence of relapse or death, and OS was defined as the first day of administration of study drug until death; subjects without an event were censored at the time of last contact. Safety analysis was conducted on all subjects who received at least one dose of study drug, and included the frequency, grading, expectedness and attribution of all adverse events as well as dose interruptions, dose reductions, and treatment discontinuation.

[3] = NMTRC 002: DFMO serum pharmacokinetics in children with NB; settings: for AUC(0-t) / Tmax / Cmax: human, serum
Description: Pharmacokinetic (PK) Analytical Method and Sample Collection. Patients were consented for all pharmacokinetic sampling and analysis. […] The extracted samples were injected into a liquid chromatograph equipped with an Atlantis Hilic Silica, 50×4.6 mm, 3 μm column. The mobile phase A was a mixture of Milli-Q type water with acetonitrile and ammonium acetate. The validated calibration range for this assay was from 50 to 100,000 ng/mL. […] Blood was not collected beyond 6 hours post dose as this trial was conducted on an outpatient basis, and this was judged to be an undue burden on patients.
Statistical Methods. […] Urinary polyamine levels were derived from duplicate measurements of individual samples. […] Fisher's Exact Test was used to assess the likelihood that increases in urinary polyamine levels were associated with disease progression. Friedman's test for repeated measures analysis of variance was used to assess changes in contents of individual urinary polyamines.
Samples were collected from patients prior to, and again at times 0.5, 1, 3, and 6 hours following drug administration on days 1 and 8 of the first cycle. […] Subsequent cycles commenced the day following the last day of the previous cycle.

[4] = human, in vivo, 27 4-week cycles

NCCCC(N)(C(=O)O)C(F)F (stereo not shown) [DFMO, 2,5-diamino-2-(difluoromethyl) pentanoic acid]
elimination half-life of DFMO [1]: 2 to 4 h | patients with grade 2-3 transaminitis (most common toxicity) ([2]; DFMO 500-1000 mg/m^2 BID): < 10% | tolerability ([2]; DFMO 500-1000 mg/m^2 BID): well tolerated | ALT elevation Grade 2, patients (%) ([2]; Stratum 1, n = 94): 3 (3%) | ALT elevation Grade 3, patients (%) ([2]; Stratum 1, n = 94): 5 (5%) | ALT elevation Grade 4, patients (%) ([2]; Stratum 1, n = 94): 0 | ALT elevation Grade 5, patients (%) ([2]; Stratum 1, n = 94): 0 | AST elevation Grade 2, patients (%) ([2]; Stratum 1, n = 94): 3 (3%) | AST elevation Grade 3, patients (%) ([2]; Stratum 1, n = 94): 4 (4%) | AST elevation Grade 4, patients (%) ([2]; Stratum 1, n = 94): 0 | AST elevation Grade 5, patients (%) ([2]; Stratum 1, n = 94): 0 | Agitation Grade 2, patients (%) ([2]; Stratum 1, n = 94): 1 (1%) | Agitation Grade 3, patients (%) ([2]; Stratum 1, n = 94): 0 | Agitation Grade 4, patients (%) ([2]; Stratum 1, n = 94): 0 | Agitation Grade 5, patients (%) ([2]; Stratum 1, n = 94): 0 | Alopecia Grade 2, patients (%) ([2]; Stratum 1, n = 94): 1 (1%) | Alopecia Grade 3, patients (%) ([2]; Stratum 1, n = 94): 0 | Alopecia Grade 4, patients (%) ([2]; Stratum 1, n = 94): 0 | Alopecia Grade 5, patients (%) ([2]; Stratum 1, n = 94): 0 | Anemia Grade 2, patients (%) ([2]; Stratum 1, n = 94): 4 (4%) | Anemia Grade 3, patients (%) ([2]; Stratum 1, n = 94): 0 | Anemia Grade 4, patients (%) ([2]; Stratum 1, n = 94): 0 | Anemia Grade 5, patients (%) ([2]; Stratum 1, n = 94): 0 | Anorexia Grade 2, patients (%) ([2]; Stratum 1, n = 94): 1 (1%) | Anorexia Grade 3, patients (%) ([2]; Stratum 1, n = 94): 0 | Anorexia Grade 4, patients (%) ([2]; Stratum 1, n = 94): 0 | Anorexia Grade 5, patients (%) ([2]; Stratum 1, n = 94): 0 | Diarrhea Grade 2, patients (%) ([2]; Stratum 1, n = 94): 5 (5%) | Diarrhea Grade 3, patients (%) ([2]; Stratum 1, n = 94): 0 | Diarrhea Grade 4, patients (%) ([2]; Stratum 1, n = 94): 0 | Diarrhea Grade 5, patients (%) ([2]; Stratum 1, n = 94): 0 | Fever Grade 2, patients (%) ([2]; Stratum 1, n = 94): 2 (2%) | Fever Grade 3, patients (%) ([2]; Stratum 1, n = 94): 0 | Fever Grade 4, patients (%) ([2]; Stratum 1, n = 94): 0 | Fever Grade 5, patients (%) ([2]; Stratum 1, n = 94): 0 | Hearing Loss Grade 2, patients (%) ([2]; Stratum 1, n = 94): 2 (2%) | Hearing Loss Grade 3, patients (%) ([2]; Stratum 1, n = 94): 4 (4%) | Hearing Loss Grade 4, patients (%) ([2]; Stratum 1, n = 94): 0 | Hearing Loss Grade 5, patients (%) ([2]; Stratum 1, n = 94): 0 | Hypoglycemia Grade 2, patients (%) ([2]; Stratum 1, n = 94): 0 | Hypoglycemia Grade 3, patients (%) ([2]; Stratum 1, n = 94): 0 | Hypoglycemia Grade 4, patients (%) ([2]; Stratum 1, n = 94): 1 (1%) | Hypoglycemia Grade 5, patients (%) ([2]; Stratum 1, n = 94): 0 | Hypokalemia Grade 2, patients (%) ([2]; Stratum 1, n = 94): 0 | Hypokalemia Grade 3, patients (%) ([2]; Stratum 1, n = 94): 2 (2%) | Hypokalemia Grade 4, patients (%) ([2]; Stratum 1, n = 94): 0 | Hypokalemia Grade 5, patients (%) ([2]; Stratum 1, n = 94): 0 | INR Elevated Grade 2, patients (%) ([2]; Stratum 1, n = 94): 1 (1%) | INR Elevated Grade 3, patients (%) ([2]; Stratum 1, n = 94): 0 | INR Elevated Grade 4, patients (%) ([2]; Stratum 1, n = 94): 0 | INR Elevated Grade 5, patients (%) ([2]; Stratum 1, n = 94): 0 | Infection, Other Grade 5, patients (%) ([2]; Stratum 1, n = 94): 0 | Infection, middle ear Grade 5, patients (%) ([2]; Stratum 1, n = 94): 0 | Neutrophil count decrease Grade 2, patients (%) ([2]; Stratum 1, n = 94): 4 (4%) | Neutrophil count decrease Grade 3, patients (%) ([2]; Stratum 1, n = 94): 3 (3%) | Neutrophil count decrease Grade 4, patients (%) ([2]; Stratum 1, n = 94): 0 | Neutrophil count decrease Grade 5, patients (%) ([2]; Stratum 1, n = 94): 0 | Pain Grade 2, patients (%) ([2]; Stratum 1, n = 94): 2 (2%) | Pain Grade 3, patients (%) ([2]; Stratum 1, n = 94): 0 | Pain Grade 4, patients (%) ([2]; Stratum 1, n = 94): 0 | Pain Grade 5, patients (%) ([2]; Stratum 1, n = 94): 0 | Platelet count decrease Grade 2, patients (%) ([2]; Stratum 1, n = 94): 2 (2%) | Platelet count decrease Grade 3, patients (%) ([2]; Stratum 1, n = 94): 0 | Platelet count decrease Grade 4, patients (%) ([2]; Stratum 1, n = 94): 0 | Platelet count decrease Grade 5, patients (%) ([2]; Stratum 1, n = 94): 0 | Post Nasal Drip Grade 2, patients (%) ([2]; Stratum 1, n = 94): 1 (1%) | Post Nasal Drip Grade 3, patients (%) ([2]; Stratum 1, n = 94): 0 | Post Nasal Drip Grade 4, patients (%) ([2]; Stratum 1, n = 94): 0 | Post Nasal Drip Grade 5, patients (%) ([2]; Stratum 1, n = 94): 0 | Rash Grade 2, patients (%) ([2]; Stratum 1, n = 94): 1 (1%) | Rash Grade 3, patients (%) ([2]; Stratum 1, n = 94): 0 | Rash Grade 4, patients (%) ([2]; Stratum 1, n = 94): 0 | Rash Grade 5, patients (%) ([2]; Stratum 1, n = 94): 0 | Weight Gain Grade 2, patients (%) ([2]; Stratum 1, n = 94): 1 (1%) | Weight Gain Grade 3, patients (%) ([2]; Stratum 1, n = 94): 0 | Weight Gain Grade 4, patients (%) ([2]; Stratum 1, n = 94): 0 | Weight Gain Grade 5, patients (%) ([2]; Stratum 1, n = 94): 0 | White blood cell decreased Grade 2, patients (%) ([2]; Stratum 1, n = 94): 2 (2%) | White blood cell decreased Grade 3, patients (%) ([2]; Stratum 1, n = 94): 0 | White blood cell decreased Grade 4, patients (%) ([2]; Stratum 1, n = 94): 0 | White blood cell decreased Grade 5, patients (%) ([2]; Stratum 1, n = 94): 0 | patients with an increase in hearing loss ([2]; among patients with pre-existing hearing loss, all returned to baseline after holding medication): 4 patients | Infection, Other Grade 2, patients (%) [2, 4]: 2 (2%) | Infection, Other Grade 3, patients (%) [2, 4]: 0 | Infection, Other Grade 4, patients (%) [2, 4]: 0 | Infection, middle ear Grade 2, patients (%) [2, 4]: 2 (2%) | Infection, middle ear Grade 3, patients (%) [2, 4]: 0 | Infection, middle ear Grade 4, patients (%) [2, 4]: 0 | population that did not report any related adverse events ([2]; over 2 years): 67% | serious adverse events (SAE) ([2]; whole study): only one SAE involving hypoglycemia | AUC0-6 hrs ([3]; 500 mg/m^2 PO BID, Cycle 1): 39.90 ± 24.16 (mcg/mL) × hrs | AUC0-6 hrs ([3]; 750 mg/m^2 PO BID, Cycle 1): 47.36 ± 18.57 (mcg/mL) × hrs | AUC0-6 hrs ([3]; 750 mg/m^2 PO BID, Cycle 2 (with etoposide)): 62.84 ± 39.47 (mcg/mL) × hrs | AUC0-6 hrs ([3]; 1000 mg/m^2 PO BID, Cycle 1): 60.05 ± 34.53 (mcg/mL) × hrs | AUC0-6 hrs ([3]; 1000 mg/m^2 PO BID, Cycle 2 (with etoposide)): 50.18 ± 32.57 (mcg/mL) × hrs | AUC0-6 hrs ([3]; 1500 mg/m^2 PO BID, Cycle 1): 108.38 ± 53.23 (mcg/mL) × hrs | AUC0-6 hrs ([3]; 1500 mg/m^2 PO BID, Cycle 2 (with etoposide)): 120.69 ± 31.22 (mcg/mL) × hrs | biologically effective doses of DFMO (serum concentration range) ([3]; from clinical benefit in this study and adult cancer prevention studies): 50-150 μM | AUC(0-t) ([3]; oral, 500 mg/m2): 39000 ng·h/mL | AUC(0-t) ([3]; oral, 1500 mg/m2): 121000 ng·h/mL | Tmax ([3]; oral, mean tmax, all dose groups): 2.5 to 3.75 h | Cmax ([3]; po, 500 mg/m2, Cmax mean ± SD, 500 mg/m^2 PO BID, Cycle 1): 9540 ± 5360 ng/mL | Tmax ([3]; po, 500 mg/m2, tmax, 500 mg/m^2 PO BID, Cycle 1): 3.75 ± 1.39 h | Cmax ([3]; po, 750 mg/m2, Cmax mean ± SD, 750 mg/m^2 PO BID, Cycle 1): 11900 ± 5220 ng/mL | Cmax ([3]; po, 750 mg/m2, Cmax mean ± SD, 750 mg/m^2 PO BID, Cycle 2 (with etoposide)): 14200 ± 7920 ng/mL | Tmax ([3]; po, 750 mg/m2, tmax, 750 mg/m^2 PO BID, Cycle 1): 3.6 ± 1.26 h | Tmax ([3]; po, 750 mg/m2, tmax, 750 mg/m^2 PO BID, Cycle 2 (with etoposide)): 2.6 ± 0.89 h | Cmax ([3]; po, 1000 mg/m2, Cmax mean ± SD, 1000 mg/m^2 PO BID, Cycle 1): 14700 ± 9070 ng/mL | Cmax ([3]; po, 1000 mg/m2, Cmax mean ± SD, 1000 mg/m^2 PO BID, Cycle 2 (with etoposide)): 14300 ± 6180 ng/mL | Tmax ([3]; po, 1000 mg/m2, tmax, 1000 mg/m^2 PO BID, Cycle 1): 3.17 ± 1.6 h | Tmax ([3]; po, 1000 mg/m2, tmax, 1000 mg/m^2 PO BID, Cycle 2 (with etoposide)): 3 h | Cmax ([3]; po, 1500 mg/m2, Cmax mean ± SD, 1500 mg/m^2 PO BID, Cycle 1): 29000 ± 15000 ng/mL | Cmax ([3]; po, 1500 mg/m2, Cmax mean ± SD, 1500 mg/m^2 PO BID, Cycle 2 (with etoposide)): 30700 ± 8180 ng/mL | Tmax ([3]; po, 1500 mg/m2, tmax, 1500 mg/m^2 PO BID, Cycle 1): 2.88 ± 1.45 h | Tmax ([3]; po, 1500 mg/m2, tmax, 1500 mg/m^2 PO BID, Cycle 2 (with etoposide)): 2.5 ± 0.9 h | mean Cmax and AUC versus oral dose ([3]; in vivo, po): increased in a linear fashion | Overall average serum DFMO concentration ([3]; patients receiving 500 mg/m^2): 9.54 μg/mL and 52.24 μM | Overall average serum DFMO concentration ([3]; patients receiving 1500 mg/m^2): 30.71 μg/mL and 168.10 μM

Source: US12582625B2, “Methods for treating neuroblastoma” (priority 2015, dated 2026)
